Experimental data: PMC3923730 (Journal of Translational Medicine, 2014)
Marks after values point to notes of the source that are not given here.

Assays:
isolated rat heart = experiment: Langendorff isolated rat heart ischemia-reperfusion, hemodynamic measurements; conditions: 1 μM, vs 0.03% HPBCD
Procedure: Ischemic reperfusion of Langendorff isolated rat heart was performed as previously described. Rat hearts were perfused either with TRO40303 1 μM (0.5 mg/mL stock in 30% HPBCD diluted 1000X in Krebs-Henseleit (KH) buffer (n = 29)) or vehicle (30% HPBCD diluted 1000X in KH buffer (n = 24)) during 30 min equilibration, 10 min low flow ischemia, and 60 min reperfusion following 30 min of total ischemia. During the reperfusion period, the following parameters were monitored via a water-filled latex balloon inserted into the left ventricle: left ventricular end diastolic pressure (LVEDP); left ventricular developed pressure (Pdev); its first derivative (dP/dt) and heart rate. Coronary flow was measured by collecting the coronary perfusate over 1 min. The rate-pressure product (RPP) was calculated as the product of Pdev and heart rate. Some of the hearts from this main experiment were used to assess ascorbate, reactive oxygen species (ROS) and lipid peroxidation as described below.

[1] = Phase I trial pharmacokinetics, single i.v. ascending doses; format: in vivo, human
Procedure: A randomized, double-blind, placebo controlled study was performed to investigate the safety, tolerability and pharmacokinetics of single i.v. ascending doses of TRO40303 in healthy male and post-menopausal female subjects. The choice of the dose and flow rate escalation process is explained in the Result section. Seventy-two healthy volunteers were randomized, with 18 receiving a placebo and 54 an active liposomal formulation containing 20 mg/mL TRO40303 at final doses ranging from 0.5, 1, 2, 3.5, 6, 10 to 13 mg/kg with escalating flow rates from 0.04 mL/min to 35 mL/min. Within each group, 3 or 6 subjects received TRO40303 and 1 or 2 subjects received the same volume of placebo. The sample size was based on the number of doses and flow rates to be investigated. The 6 verum/2 placebo ratio per group is widely used in single ascending dose studies and provides adequate safety and pharmacokinetic information. The 3 verum/1 placebo ratio used in the last groups was chosen only to explore additional flow rates at previously studied doses.
Venous blood samples (5 mL) were collected for determination of TRO40303 concentrations in plasma at pre-dose, end of infusion, then 5 min, 15 min, 30 min, 1 h, 2 h, 4 h, 8 h, 12 h, 16 h, 24 h, 48 h, 72 h and 96 h post end of infusion into heparin–lithium Vacutainer tubes. The blood samples were gently inverted then centrifuged in a refrigerated centrifuge (+4°C) within 30 min after sampling at 1500 g for ca 10 min. The resulting plasma was frozen in two separate labelled polypropylene tubes at –20 ± 5°C until assaying.
For the quantifying TRO40303 levels in human plasma samples, the same method, GLP validated, was used and the analysis was performed at Bertin Pharma (Orleans, France). Analysis was carried out on 1200 Series (Agilent) and Series 200 (Perkin Elmer) systems interfaced to an API 4000 (AB Sciex) MS detector. Calculations were carried out with Analyst 1.4.1 and 1.5.1 (AB Sciex) software.

[2] = human, single i.v., liposomes, 0.5 mg/kg, n = 4
[3] = human, single i.v., liposomes, 0.5 mg/kg, n = 6
[4] = human, single i.v., liposomes, 1 mg/kg, n = 6
[5] = human, single i.v., liposomes, 2 mg/kg, n = 6
[6] = human, single i.v., liposomes, 3.5 mg/kg, n = 9
[7] = human, single i.v., liposomes, 6 mg/kg, n = 11
[8] = human, single i.v., liposomes, 6 mg/kg, n = 12
[9] = human, single i.v., liposomes, 10 mg/kg, n = 9
[10] = human, single i.v., liposomes, 13 mg/kg, n = 6
[11] = human, single i.v., liposomes, over all doses
[12] = liposomes in human, IL30 in rats

CC(C)CCC[C@@H](C)[C@H]1CC[C@H]2[C@@H]3CC/C(=N\O)[C@](C)(CCCO)[C@H]3CC[C@]12C [TRO40303, 3,5-seco-4-nor-cholestan-5-one oxime-3-ol]
recovery of LVEDP at reperfusion (isolated rat heart; 60 min reperfusion after 30 min total ischemia): greatly and significantly improved
contractility (dP/dt) (isolated rat heart; reperfusion): improved
developed pressure (Pdev) (isolated rat heart; reperfusion): improved
rate-pressure product (RPP) (isolated rat heart; reperfusion): significantly higher
recovery of coronary flow (isolated rat heart; reperfusion): better recovery
dose proportionality of Cmax and AUC(0-∞) ([1]; human, from 0.5 to 6 mg/kg): linear
hyper-proportionality of Cmax and AUC(0-∞) ([1]; human, from 6 to 13 mg/kg): ~ 1.5 fold
AUC(0-∞) Mean [1, 2]: 15.5* μg.h/mL
AUC(0-∞) Min-max [1, 2]: 9.13 to 20.9 µg·h/mL
C5min Min-max [1, 3]: 1.59 to 3.92 µg/mL
CL Mean [1, 3]: 0.0359 L/h/kg
CL Min-max [1, 3]: 0.0239 to 0.0547 L/h/kg
Cmax Mean [1, 3]: 3.32 µg/mL
Cmax Min-max [1, 3]: 2.31 to 4.85 µg/mL
Terminal t1/2 Mean [1, 3]: 29.5 h
Terminal t1/2 Min-max [1, 3]: 27.0 to 31.5 h
Vz Mean [1, 3]: 1.54 L/kg
Vz Min-max [1, 3]: 0.00103 to 0.00249 L/kg
C5min Mean ([1]; human, single i.v., liposomes, 0.5 mg/kg, n = 6, 5 min post end of infusion): 2.58 µg/mL
AUC(0-∞) Mean [1, 4]: 34.5 µg·h/mL
AUC(0-∞) Min-max [1, 4]: 21.0 to 43.0 µg·h/mL
C5min Min-max [1, 4]: 5.98 to 12.5 µg/mL
CL Mean [1, 4]: 0.0305 L/h/kg
CL Min-max [1, 4]: 0.0233 to 0.0475 L/h/kg
Cmax Mean [1, 4]: 10.3 µg/mL
Cmax Min-max [1, 4]: 6.06 to 14.1 µg/mL
Terminal t1/2 Mean [1, 4]: 25.1 h
Terminal t1/2 Min-max [1, 4]: 22.9 to 26.8 h
Vz Mean [1, 4]: 1.11 L/kg
Vz Min-max [1, 4]: 0.000899 to 0.00177 L/kg
C5min Mean ([1]; human, single i.v., liposomes, 1 mg/kg, n = 6, 5 min post end of infusion): 9.26 µg/mL
C5min Min-max ([1]; human, single i.v., liposomes, 2 mg/kg, n = 5): 16.7 to 26.8 µg/mL
C5min Mean ([1]; human, single i.v., liposomes, 2 mg/kg, n = 5, 5 min post end of infusion): 23.6** μg/mL
AUC(0-∞) Mean [1, 5]: 68.6 µg·h/mL
AUC(0-∞) Min-max [1, 5]: 50.7 to 81.5 µg·h/mL
CL Mean [1, 5]: 0.0299 L/h/kg
CL Min-max [1, 5]: 0.0245 to 0.0394 L/h/kg
Cmax Mean [1, 5]: 23.1 µg/mL
Cmax Min-max [1, 5]: 16.0 to 31.1 µg/mL
Terminal t1/2 Mean [1, 5]: 26.4 h
Terminal t1/2 Min-max [1, 5]: 24.3 to 28.7 h
Vz Mean [1, 5]: 1.14 L/kg
Vz Min-max [1, 5]: 0.00091 to 0.00152 L/kg
AUC(0-∞) Mean [1, 6]: 109 µg·h/mL
AUC(0-∞) Min-max [1, 6]: 81.0 to 163 µg·h/mL
C5min Min-max [1, 6]: 37.1 to 68.7 µg/mL
CL Mean [1, 6]: 0.0336 L/h/kg
CL Min-max [1, 6]: 0.0214 to 0.0433 L/h/kg
Cmax Mean [1, 6]: 51.7 µg/mL
Cmax Min-max [1, 6]: 37.7 to 68.7 µg/mL
Terminal t1/2 Mean [1, 6]: 25.1 h
Terminal t1/2 Min-max [1, 6]: 23.1 to 27.7 h
Vz Mean [1, 6]: 1.22 L/kg
Vz Min-max [1, 6]: 0.000723 to 0.00152 L/kg
C5min Mean ([1]; human, single i.v., liposomes, 3.5 mg/kg, n = 9, 5 min post end of infusion): 50.2 µg/mL
AUC(0-∞) Mean [1, 7]: 229*** μg.h/mL
AUC(0-∞) Min-max [1, 7]: 147 to 307 µg·h/mL
C5min Min-max [1, 8]: 51.6 to 266 µg/mL
CL Mean [1, 8]: 0.0276 L/h/kg
CL Min-max [1, 8]: 0.0196 to 0.0408 L/h/kg
Cmax Mean [1, 8]: 118 µg/mL
Cmax Min-max [1, 8]: 59.5 to 266 µg/mL
Terminal t1/2 Mean [1, 8]: 24.4 h
Terminal t1/2 Min-max [1, 8]: 21.2 to 30.0 h
Vz Mean [1, 8]: 0.964 L/kg
Vz Min-max [1, 8]: 0.000611 to 0.00134 L/kg
C5min Mean ([1]; human, single i.v., liposomes, 6 mg/kg, n = 12, 5 min post end of infusion): 112 µg/mL
AUC(0-∞) Mean [1, 9]: 408 µg·h/mL
AUC(0-∞) Min-max [1, 9]: 303 to 501 µg·h/mL
C5min Min-max [1, 9]: 120 to 279 µg/mL
CL Mean [1, 9]: 0.0253 L/h/kg
CL Min-max [1, 9]: 0.0199 to 0.0329 L/h/kg
Cmax Mean [1, 9]: 194 µg/mL
Cmax Min-max [1, 9]: 130 to 279 µg/mL
Terminal t1/2 Mean [1, 9]: 25.3 h
Terminal t1/2 Min-max [1, 9]: 19.3 to 30.2 h
Vz Mean [1, 9]: 0.929 L/kg
Vz Min-max [1, 9]: 0.000624 to 0.00144 L/kg
C5min Mean ([1]; human, single i.v., liposomes, 10 mg/kg, n = 9, 5 min post end of infusion): 193 µg/mL
AUC(0-∞) Mean [1, 10]: 651 µg·h/mL
AUC(0-∞) Min-max [1, 10]: 468 to 814 µg·h/mL
C5min Min-max [1, 10]: 148 to 371 µg/mL
CL Mean [1, 10]: 0.0208 L/h/kg
CL Min-max [1, 10]: 0.016 to 0.0278 L/h/kg
Cmax Mean [1, 10]: 259 µg/mL
Cmax Min-max [1, 10]: 167 to 371 µg/mL
Terminal t1/2 Mean [1, 10]: 24.4 h
Terminal t1/2 Min-max [1, 10]: 20.1 to 28.6 h
Vz Mean [1, 10]: 0.723 L/kg
Vz Min-max [1, 10]: 0.000599 to 0.000989 L/kg
C5min Mean ([1]; human, single i.v., liposomes, 13 mg/kg, n = 6, 5 min post end of infusion): 248 µg/mL
Vz [1, 11]: 1.1 L/kg
mean penultimate thalf (when at least 80% of drug was eliminated) [1, 11]: 4 h
mean terminal thalf [1, 11]: 25 h
AUC(0-∞) in humans compared to rats for the same dose [1, 12]: ~ 7 fold
C5min in humans compared to rats for the same dose [1, 12]: ~ 2 fold
